{
  "source": "patent US20220112149A1",
  "about": "“DRUG DESIGN METHOD ASSOCIATED WITH NATURAL PRODUCTS, PENTACYCLIC TRITERPENOID COMPOUND, PREPARATION METHOD AND APPLICATIONS THEREOF” (Huazhong Agricultural University, priority 2020, published 2022)",
  "key": {"[1]": {"tested_on": "mildly obese mice", "experiment": "GA-03 in mildly obese mouse model, intraperitoneal", "format": "in vivo, C57BL/6 mice", "settings": "intraperitoneal injection", "experimental": "Animals are fed with common diets (purchased) for 14 consecutive weeks. […] When the body weight is greater than 30 g, the administration is started. […] The injection volume is 25 μL per day."}, "[2]": {"tested_on": "lean mice", "settings": "mouse, in vivo, ip", "quoted_text": "Six-week-old SPF-grade C57BL/6 mice (purchased from Hubei Provincial Center for Disease Control and Prevention) are fed in SPF animal house at a room temperature of 22° C., 4 mice per cage. Animals are fed with common diets (purchased) for 2 consecutive weeks. Mice are free to take food and the padding is changed every two days, and the body weights and blood glucose are monitored every week. When the body weight is greater than 22 g, the administration is started. The drug is dissolved in DMSO solvent and administered by intraperitoneal injection. The injection volume is 25 μL per day. In addition, a vehicle and positive drug control are established. The food intake and body weight changes of mice in each group are measured every day. On Days 1 and 21, the blood routine and blood biochemical parameters are monitored. At the same time, the glucose tolerance test (GTT) and insulin tolerance test (ITT) are carried out."}, "[3]": {"tested_on": "ICAM-1 expression in HMEC-1 cells", "experiment": "LPS-induced ICAM-1 expression in HMEC-1 cells, flow cytometry", "format": "cell-based, human", "experimental": "(3) Screening candidate molecules with the strongest ICAM-1 inhibitory activity by simulating the physiological model of inflammation that human microvascular endothelial cells (HMEC-1) expressing cell adhesion molecules (ICAM-1) mediate lymphocytes to penetrate blood vessels to infiltrate the damaged tissues. The specific steps are as follows:\n1) Culture of HMEC-1 cells: HMEC-1 cells are cultured in MCDB131 medium (U.S. Sigma) that contain 10% fetal bovine serum (FBS, Zhejiang Tianhang Biotechnology Co., Ltd.), double antibody (100 U/mL penicillin and 100 μg/mL streptomycin), 1 μg/mL hydrocortisone (Sangon Biotech (Shanghai) Co., Ltd.) and 10 ng/mL human recombinant growth factor (hEGF, Sangon Biotech (Shanghai) Co., Ltd.) at 37° C., 5% CO2, and 100% RH.\n2) HMEC-1 cells are inoculated into a 24-well plate, and cultured in a cell incubator at 37° C., 5% CO2, and 100% RH. When the cells grow to 80% abundance, different concentrations of drugs are added for 3 h (1 μM Celastrol as a positive control drug). At the end of treatment, 1 μg/mL LPS is added to activate the NF-κB signaling pathway for 12 hours. After activation, the supernatant medium is discarded, and washed three times with PBS, and 100 μL of 0.25% pancreatin (containing 0.5 mM EDTA) is added to digest in a 37° C. incubator for 3 min. When most of cells are shed, 150 μL of MCDB131 complete medium is added to terminate the digestion, shaken for 3 min, then cells are transferred to a V-shaped 96-well plate (Corning), centrifuged at 4° C., 3000 rpm for 3 min to precipitate cells. Then the supernatant medium is discarded, 100 μL of pH=7.4 buffer A (PBS+0.5% BSA+1 mM MgCl2) is added to each well, to wash once, centrifuged at 4° C., 3000 rpm for 3 min, and the buffer A is aspirated. To each well, 100 μL of PBS solution containing 5% bovine serum albumin is added, and shaken and blocked at 120 rpm for 30 min at room temperature; after blocking, centrifuged at 4° C. and 2000 rpm for 3 min, and the supernatant is discarded, 20 μl of buffer A containing 5 μg/mL of primary antibody anti-ICAM-1 antibody LB-2, shaken and incubated at room temperature at 120 rpm for 1 h, using the buffer A without adding anti-ICAM-1 antibody LB-2 as the negative control. By detecting anti-ICAM-1 fluorescence value by flow cytometry, the expression of ICAM-1 protein in HMEC-1 cells is detected indirectly. Three duplicate wells are established for each concentration. PBS is set as a blank control, 1 uM of Celastrol is set as a positive control, to analyze the inhibitory effect of different concentrations of drugs on the expression level of ICAM-1.\n1) Culture of HMEC-1 cells: HMEC-1 cells are cultured in MCDB131 medium (U.S. Sigma) that contain 10% fetal bovine serum (FBS, Zhejiang Tianhang Biotechnology Co., Ltd.), double antibody (100 U/ml penicillin and 100 μg/ml streptomycin), 1 μg/ml hydrocortisone (Sangon Biotech) and 10 ng/ml human recombinant growth factor (hEGF, Sangon Biotech) at 37° C., 5% CO2, and 100% RH.\nHMEC-1 cells are inoculated into a 24-well plate, and cultured in a cell incubator at 37° C., 5% CO2, and 100% RH. When the cells grow to 80% abundance, different concentrations of drugs are added for 3 h (1 μM Celastrol as a positive control drug). At the end of treatment, 1 μg/mL LPS is added to activate the NF-κB signaling pathway for 12 hours. After activation, the supernatant medium is discarded, and washed three times with PBS, and 100 μL of 0.25% pancreatin (containing 0.5 mM EDTA) is added to digest in a 37° C. incubator for 3 min. When most of cells are shed, 150 μL of MCDB131 complete medium is added to terminate the digestion, shaken for 3 min, then cells are transferred to a V-shaped 96-well plate (Corning), centrifuged at 4° C., 3000 rpm for 3 min to precipitate cells. Then the supernatant medium is discarded, 100 μL of pH=7.4 buffer A (PBS+0.5% BSA+1 mM MgCl2) is added to each well, to wash once, centrifuged at 4° C., 3000 rpm for 3 min, and the buffer A is aspirated. […]"}, "[4]": {"tested_on": "high-fat-induced obese mice", "experiment": "GA-03 in high-fat-induced obese mouse model, intraperitoneal", "format": "in vivo, C57BL/6 mice", "experimental": "Animals are fed with 60% calorie high-fat diets (purchased from Bio-medicine) for 14 consecutive weeks. […] When the blood glucose is greater than 11 mmol/L and the body weight is greater than 42 g, the administration is started. […] The injection volume is […]. In addition, a vehicle (25 μL DMSO) is established. […] Mice in the blank group and GA-02 treatment group underwent pathological anatomy, to observe the changes in organs before and after administration. Samples are taken to prepare pathological sections.\nThe model is constructed by feeding high-fat diets to C57BL/6 male mice for 14 weeks, as shown in FIGS. 22A-22D, obese model mice with a body weight greater than 42 g and blood glucose level higher than 11 mmol/L. Model mice are grouped by blood glucose and body weight. […]"}, "[5]": {"settings": "in vivo; cited from earlier work"}, "[6]": {"tested_on": "NF-κB signaling in HEK293 cells", "experiment": "NF-κB luciferase reporter gene system", "format": "cell-based", "settings": "Homo sapiens, HEK293, read-out: inhibition of the fluorescence signal (NF-κB luciferase reporter)", "experimental": "FIGS. 10A-10C show the inhibition verification effect chart of GA-02 in Example 5, where FIG. 10A: GA-02 inhibited LPS-induced ICAM-1 expression activity. The inflammatory pathway of HMEC-1 cell was activated by 1 μg/mL LPS, to determine the effect of Celastrol and GA-02 on the expression of ICAM-1 induced by LPS. FIG. 10B: The effect of GA-02 on NF-κB signaling. The NF-κB luciferase reporter plasmid was used to transfect HEK293 cells, and the effects of Celastrol and GA-02 on the NF-κB activity induced by TNF-α were determined; FIG. 10C: qRT-PCR was used to detect mRNA relative expressions of IL-1β, TNF-α, IL-6 and MCP-1.\nICAM-1 is a downstream effector molecule regulated by NF-κB signaling pathway, and NF-κB plays an important role in regulating the expression of ICAM-1 gene. Celastrol can inhibit the activation of the LPS-induced IKK/NF-κB signaling pathway. In order to validate that GA-02 functions through the IKK/NF-κB signaling pathway, we constructed an NF-κB luciferase reporter gene system to validate the inhibitory activity of Celastrol and GA-02 on the luciferase reporter gene. […] In addition, both Celastrol and GA-02 could down-regulate the mRNA transcription levels of inflammatory factors IL-1β, TNF-α, IL-6 and MCP-1 activated by LPS."}, "[7]": {"tested_on": "mice", "settings": "cited from earlier work"}, "[8]": {"tested_on": "mice with hereditary diabetes", "settings": "cited from earlier work"}, "[9]": {"tested_on": "normal rats", "settings": "cited from earlier work"}, "[10]": {"settings": "high-dose (8 mg/kg) i.p., second day"}, "[11]": {"settings": "high-dose (8 mg/kg) i.p., third day"}, "[12]": {"settings": "low-, medium- and high-dose (2, 4, 8 mg/kg) i.p."}},
  "data": [
    {"compound": "11-dicarbonyl-12-ene-2α,3β-dihydroxy-oleanane [GA-03]", "values": [
      {"measurement": "effect on appetite suppression and weight reduction", "setting": "[1]", "value": "obvious effect"},
      {"measurement": "effect on the food intake and body weight", "setting": "[2]", "value": "no effect"},
      {"measurement": "anti-inflammatory activity compared with reference compounds", "setting": "[3]", "value": "basically equivalent to that of GA-02 and superior to 18β-glycyrrhetinic acid"},
      {"measurement": "body weight reduced by", "setting": "[4]; high dose 8 mg/kg i.p., three weeks", "value": "33.80±2.95", "unit": "%"},
      {"measurement": "body weight after three weeks of administration", "setting": "[4]; high dose 8 mg/kg i.p., from 47.49±0.97 g", "value": "31.45 ± 1.81", "unit": "g"},
      {"measurement": "liver function indexes AST and ALT vs vehicle control group", "setting": "[4]; high-dose (8 mg/kg) i.p.", "value": "significantly lower"},
      {"measurement": "average daily food intake", "setting": "[4]; high-dose (8 mg/kg) i.p., first day of administration, day 0: 3.14±0.40 g", "value": "0.65 ± 0.02", "unit": "g"},
      {"measurement": "body weight", "setting": "[4]; high-dose (8 mg/kg) i.p., first day, from 47.49±0.97 g", "value": "46.18 ± 0.95", "unit": "g"},
      {"measurement": "average daily food intake", "setting": "[4]; [10]", "value": "0.57 ± 0.01", "unit": "g"},
      {"measurement": "body weight", "setting": "[4]; [10]", "value": "44.74 ± 0.76", "unit": "g"},
      {"measurement": "average daily food intake", "setting": "[4]; [11]", "value": "0.66 ± 0.06", "unit": "g"},
      {"measurement": "body weight", "setting": "[4]; [11]", "value": "43.13 ± 0.65", "unit": "g"},
      {"measurement": "lipid droplets in the liver (oil red O and H&E staining)", "setting": "[4]; high-dose (8 mg/kg) i.p., three weeks", "value": "completely disappeared"},
      {"measurement": "effect on appetite suppression and weight reduction", "setting": "[4]; intraperitoneal injection, obese mice", "value": "strong effect"},
      {"measurement": "body weight reduced by", "setting": "[4]; low dose 2 mg/kg i.p., three weeks", "value": "20.40±1.89", "unit": "%"},
      {"measurement": "body weight after three weeks of administration", "setting": "[4]; low dose 2 mg/kg i.p., from 47.11±1.32 g", "value": "37.49 ± 1.28", "unit": "g"},
      {"measurement": "fasting blood glucose levels", "setting": "[4]; [12]", "value": "reduce to a normal level"},
      {"measurement": "weights of liver and epididymal fat compared to the vehicle control group", "setting": "[4]; [12]", "value": "decrease in a dose-dependent manner"},
      {"measurement": "blood glucose tolerance (GTT) and insulin tolerance (ITT)", "setting": "[4]; low-, medium- and high-dose groups, i.p.", "value": "significantly improved"},
      {"measurement": "body weight reduced by", "setting": "[4]; medium dose 4 mg/kg i.p., three weeks", "value": "27.63±3.39", "unit": "%"},
      {"measurement": "body weight after three weeks of administration", "setting": "[4]; medium dose 4 mg/kg i.p., from 46.94±1.41 g", "value": "33.99 ± 2.30", "unit": "g"}
    ]},
    {"compound": "CC1(C)[C@@H](O)CC[C@]2(C)[C@H]3C(=O)C=C4[C@@H]5C[C@@](C)(C(=O)O)CC[C@]5(C)CC[C@@]4(C)[C@]3(C)CC[C@@H]12", "note": "[18-β-glycyrrhetinic acid, reference compound]", "values": [
      {"measurement": "ICAM-1 inhibitory activity among the candidate triterpene natural products", "setting": "[3]; HMEC-1, 1 μg/mL LPS, FIG. 3", "value": "best ICAM-1 inhibitory activity"}
    ]},
    {"compound": "CC1=C(O)C(=O)C=C2C1=CC=C1[C@@]2(C)CC[C@@]2(C)[C@@H]3C[C@](C)(C(=O)O)CC[C@]3(C)CC[C@]12C", "note": "[Celastrol]", "values": [
      {"measurement": "bioavailability", "setting": "[5]", "value": 17.06, "unit": "%"},
      {"measurement": "inhibition at 1 µM", "setting": "[6]", "value": 70, "unit": "%"},
      {"measurement": "toxicity to the brains, hearts and livers", "setting": "[7]; dose of 1 mg/kg", "value": "serious toxicity"},
      {"measurement": "lethality rate", "setting": "[7]; dose of 4 mg/kg", "value": 40, "unit": "%"}
    ]},
    {"compound": "C[C@H]1[C@H](C)CC[C@]2(C(=O)O)CC[C@]3(C)C(=CC[C@@H]4[C@@]5(C)C[C@@H](O)[C@H](O)C(C)(C)[C@@H]5CC[C@]43C)[C@H]12", "note": "[corosolic acid]", "values": [
      {"measurement": "blood glucose lowering", "setting": "[8]", "value": "significant effect of lowering blood glucose"},
      {"measurement": "blood glucose lowering", "setting": "[9]", "value": "significant effect of lowering blood glucose"}
    ]}
  ]
}
